Test results taken from US8461078B2 (priority 2009, dated 2013).

How the values were obtained:
Phytophthora capsici = assay: In vitro fungitoxicity (growth inhibition) against Phytophthora capsici in copper-minus AS and copper-plus AS medium; assay type: cell-based; settings: CuCl2, 50 uM; no test compound; across experiments
Procedure: In vitro fungitoxicity assays against Phytophthora capsici were conducted using the asparagine-sucrose (AS) medium described in Canadian Journal of Microbiology 1961, 7, 15-25, except that copper micronutrient, normally included as CuSO4, was omitted. The medium, termed “copper-minus AS”, was prepared by dissolving 2 g asparagine, 0.43 g KH2PO4, 0.3 g K2HPO4, 0.4 mL of a 0.5 mg/mL thiamine-HCl solution and 15 g sucrose in 1 liter of deionized water and treating the solution with 0.5 g Chelex 100 resin (Bio-Rad Analytical grade, 50-100 mesh, sodium form, cat #142-2822) by stirring at room temperature for 1 h. The pH was adjusted to 6.4, then MgSO4.7H2O (100 μg/mL), FeSO4.7H2O (1 μg/mL), CaCl2 (50 μg/mL), ZnSO4.7H2O (1 μg/mL), NaMoO4.2H2O (0.2 μg/mL) and MnCl2.4H2O (0.2 μg/mL) were added and the entire medium was sterilized by filtration. […]
Phytophthora capsici was grown on petri plates, 9 cm in diameter, containing 15 mL V-8 agar, pH 7.0, containing 200 mL V-8 juice, 4 g CaCO3, and 20 g agar per liter. […] Microtiter plates were inoculated with 100 μL of spore suspension and incubated at 25° C. for 48 h before assessing fungal growth by measuring light scattering in a NepheloStar plate reader. Growth inhibition was determined by comparing growth in the presence of test compound with growth in control wells lacking test compound. […]

[1] = tested on: Staphylococcus aureus, Escherichia coli, Aspergillus niger and A. flavus; settings: literature report (Proc. Natl. Acad. Sci. India 1991); cited from earlier work
[2] = tested on: Leptosphaeria nodorum (LEPTNO); assay: In vitro fungitoxicity (growth inhibition) against Leptosphaeria nodorum in copper-minus and copper-plus medium; assay type: cell-based; settings: 0.05 μg/mL, 72 h at 25° C.; for LEPTNO % Inhn. Plus Copper Observed: copper-plus medium (CuCl2, 10 μM); for inhibition of growth at 0.05 µg/mL: Parastagonospora nodorum, read-out: LEPTNO % Inhn. Minus Copper Observed
Procedure: In vitro fungitoxicity assays against Leptosphaeria nodorum (LEPTNO) were conducted using the liquid growth medium described by Coursen and Sisler (American Journal of Botany 1960, 47, 541-549) except that copper micronutrient, normally included as CuSO4, was omitted. The medium, termed “copper-minus”, was prepared by dissolving 10 g glucose, 1.5 g K2HPO4, 2 g KH2PO4 and 1 g (NH4)2SO4 in 1 liter of deionized water and treating the solution with 0.5 g Chelex 100 resin (Bio-Rad Analytical grade, 50-100 mesh, sodium form, cat #142-2822) by stirring at room temperature for 1 h. MgSO4.7H2O (0.5 g) was added, and stirring was continued for a further hour. Trace elements (minus CuSO4), and vitamins described by Coursen and Sisler were added from concentrated stock solutions and the entire medium was sterilized by filtration. Medium containing copper was prepared by adding CuCl2.2H2O to the copper-minus medium at 20 μM. Test compounds were dissolved in dimethylsulfoxide (DMSO) then dilutions in copper-minus and copper-plus growth media were prepared as 100 μL aliquots in flat-bottomed 96-well microtiter plates.
LEPTNO was grown on potato dextrose agar in 9 cm diameter petri dishes for 7 days. Sterile deionized water (20 mL) was added to a culture plate and spores suspended by scraping the surface gently with a sterile plastic loop. The resulting suspension was filtered through a double layer of sterile cheesecloth. Filtered spore suspension (5 mL) was centrifuged in a bench centrifuge at 2000 rpm for 2 min. The resulting spore pellet was resuspended in 10 mL sterile deionized water (which had been treated with Chelex 100 resin using 0.5 g resin per liter of water by stirring at room temperature for 1 h), and recentrifuged. The spores were resuspended in copper-minus medium, and the suspension adjusted to 2×10^5 spores per mL. Microtiter plates were inoculated with 100 μL of this spore suspension and the plates incubated at 25° C. for 72 h before assessing fungal growth by measuring light scattering in a NepheloStar plate reader. Growth inhibition was determined by comparing growth in the presence of test compound with growth in control wells lacking test compound.
Results for growth inhibition by test compounds in copper-plus medium (“% Inhn Plus Copper Observed”) were compared with predicted values (“% Inhn Plus Copper Predicted”) that were calculated using the formula set forth by S. R. Colby in Weeds 1967, 15, 20-22 based on results obtained for the same compounds in copper-minus medium (“% Inhn Minus Copper Observed”) and the inhibition attributed to copper chloride alone, as determined by comparing growth in copper-minus and copper-plus media without any test compound across experiments. Results illustrate that hydrazones and copper produce a synergistic fungitoxic effect towards LEPTNO.

Phytophthora infestans = assay type: in vivo, Phytophthora infestans on tomato plant; settings: 50 ppm hydrazone with 50 μM CuCl2.2H2O; applied 24 h before inoculation; assessed 7 days after inoculation; tomato

| Structure (SMILES) | TLB % Control (Phytophthora infestans) [%] | LEPTNO % Inhn. Plus Copper Observed [2] [%] | inhibition of growth at 0.05 µg/mL ([2]; copper-minus medium) [%] | other results |
| --- | --- | --- | --- | --- |
| O.O.[Cl][Cu][Cl] [CuCl2, CuCl2.2H2O, reference compound] | – | – | – | % Inhn attributed to copper chloride alone (Phytophthora capsici) (Phytophthora capsici): 4.5 ± 7.9% |
| O=C(NN=Cc1ccccc1O)c1ccccc1O [o-hydroxybenzaldehyde-N-salicyloylhydrazone] | – | – | – | Antimicrobial activity [1]: Antimicrobial activity has been reported |
| O=C(N/N=C/c1cc(Cl)ccc1O)c1ccc(C(F)(F)F)cc1 [Compound 33] | – | – | – | LEPTNO % Inhn. Minus Copper Observed ([2]; copper-minus medium): 20.7% |
| O=C(N/N=C/c1cc(Cl)cc(Cl)c1O)c1cc(Cl)ccc1Br [Compound 36] | 70.9 | 92.5 | 0 | – |
| O=C(N/N=C/c1cc(Br)cc(Br)c1O)c1cc(Cl)ccc1Br [Compound 37] | 68.4 | 97.9 | 34.5 | – |
